Measurements as given in patent US8980793B2, “Phytosanitary formulations” (Centre National de la Recherche Scientifique (CNRS), priority 2007, dated 2015).

Columns and labels:
[1] = Mikado spread on maize plants planted in a field, leaf surface checked by HPLC; details: spread as Mikado
Description: For this aim, the commercial formulation, Mikado®, has been spread on maize plants planted in a field.
The amount of sulcotrione and the formation of a by-product of the phototransformation on the surface of the leaves have been checked by HPLC.

[2] = Tests in darkness on wax films (penetration and volatilisation); type: physicochemical; details: wax film
Description: The methodology for conducting the tests on thin films of cuticular wax comprises the following steps: • Preparation of the wax film: the wax which is used is the commercial carnauba wax. • Adding the pesticide. On the one hand, the active ingredient, sulcotrione, and on the other hand, the commercial formulation, Mikado®(alone or with the adding of at least one extract of at least one tinctorial plant, is deposited under the form of an aqueous solution on the surface of the leaves. The amount of active ingredient deposited by surface unit is equivalent to the amount used in agriculture. The studies are conducted after evaporation of the water. • Recovering of the pesticide. The films are rinsed with water and analysed by HPLC. It has been checked that the step of recovering is quantitative. • Tests in darkness. The concentration of the active ingredients on the surface of the leaves in darkness is controlled in order to measure the penetration rate of the active ingredient in the films and its volatilisation. […] Irradiation tests are conducted in a Suntest reactor simulating solar rays in temperate countries.

[3] = Photodegradation of sulcotrione on carnauba wax films irradiated in a Suntest reactor, HPLC analysis; type: physicochemical; details: wax film, 6 hours irradiation
Description: The methodology for conducting the tests on thin films of cuticular wax comprises the following steps: • Preparation of the wax film: the wax which is used is the commercial carnauba wax. • Adding the pesticide. On the one hand, the active ingredient, sulcotrione, and on the other hand, the commercial formulation, Mikado®(alone or with the adding of at least one extract of at least one tinctorial plant, is deposited under the form of an aqueous solution on the surface of the leaves. The amount of active ingredient deposited by surface unit is equivalent to the amount used in agriculture. The studies are conducted after evaporation of the water. • Recovering of the pesticide. The films are rinsed with water and analysed by HPLC. It has been checked that the step of recovering is quantitative. • Tests in darkness. The concentration of the active ingredients on the surface of the leaves in darkness is controlled in order to measure the penetration rate of the active ingredient in the films and its volatilisation. […]
The photoprotective effects of the extracts according to the invention have been evaluated as follows The surface concentration of the active ingredient (sulcotrione) on the wax films is of 0.76 10^−5 g/cm^2, the active ingredient being used either pure or under the form of a commercial formulation. […]

[4] = cited from earlier work

SMILES: CS(=O)(=O)c1ccc(C(=O)C2C(=O)CCCC2=O)c(Cl)c1 [sulcotrione]
- detection of sulcotrione on the surface of the leaves ([1]; maize plants in a field, after 24 hours): no longer detected
- sulcotrione transformed ([1]; surface of maize leaves in a field, after one hour): 25%
- penetration of the active ingredient into the films [2]: penetrates slowly into the films
- volatilisation of the active ingredient [2]: very little active ingredients volatilize
- Weight percentage of remaining active ingredient after 6 hours of UV exposure [3]: 5-10%
- half-life in water [4]: about 80 days
